Results as given in patent publication US6617117B1, “MAP kinases: polypeptides, polynucleotides and uses thereof” (Medical Research Council, priority 1996, dated 2003).

Legend:
MAPKAP-K2 = conditions: every mammalian cell so far examined; cited from earlier work
MAPKAP-K3 = conditions: every mammalian cell so far examined; cited from earlier work
SAPK4 = target: T1, SAPK4 (Homo sapiens, UniProt O15264); experiment: Inhibition of SAPK4, MBP phosphorylation (FIG. 9); assay type: biochemical; set-up: made in house; host or cells: E. coli BL21(DE3)
T1 sequence (O15264 1-365): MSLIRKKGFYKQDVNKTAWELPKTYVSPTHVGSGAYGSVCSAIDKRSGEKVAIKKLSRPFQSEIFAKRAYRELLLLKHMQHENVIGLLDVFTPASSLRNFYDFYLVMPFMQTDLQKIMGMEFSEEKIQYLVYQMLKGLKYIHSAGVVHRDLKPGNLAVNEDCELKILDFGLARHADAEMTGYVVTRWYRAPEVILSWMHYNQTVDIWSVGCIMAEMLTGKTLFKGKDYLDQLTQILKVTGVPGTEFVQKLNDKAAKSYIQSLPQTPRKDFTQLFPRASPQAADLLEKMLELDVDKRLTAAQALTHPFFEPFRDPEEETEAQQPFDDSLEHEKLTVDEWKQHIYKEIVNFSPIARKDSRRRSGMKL
Protocol: SAPK4 is assayed routinely by the phosphorylation of MBP. […] After washing and drying the papers (Alessi et al, 1995 Meth. Enzymol. 255, 279-290) ^32P radioactivity incorporated into MBP is measured.

SMILES: C[S+]([O-])c1ccc(-c2nc(-c3ccncc3)c(-c3ccc(F)cc3)[nH]2)cc1 (stereo not shown) [SB 203580]
- Suppression of stress- and cytokine-induced activation of MAPKAP-K2 (MAPKAP-K2): 80-95%
- Suppression of stress- and cytokine-induced activation of MAPKAP-K3 (MAPKAP-K3): 80-95%
- Inhibition of SAPK4 (SAPK4; bacterially expressed SAPK4 activated by SKK3 in vitro): not inhibited
- Inhibition of dephosphorylated form of SAPK4 (SAPK4; dephosphorylated form, <0.1% of the activity of the phosphorylated form, data not shown): failed to inhibit
